Reference: patent US20090131306A1, “CHEMICALLY MODIFIED CYCLIC PEPTIDES CONTAINING CELL ADHESION RECOGNITION (CAR) SEQUENCES AND USES THEREFOR” (ADHEREX TECHNOLOGIES, INC., priority 2007, published 2009)
*1 amine or outer side, *2 acyl side, *3 side chain or, on linkers, in order; H or OH if unused. Where a SMILES comes first, the peptide text is derived from it. Bridges are numbered along the chain shown (N, C = ends). [ ]: non-standard residue; d: D form. Phe(4-yl) = O=C([C@H](Cc1ccc([*:3])cc1)N[*:1])[*:2]

What was measured:
[1] = Stability testing in human whole blood; details: for stability in whole blood: human whole blood, result in words, relative to unmodified ADH-1
Stability testing in PBS = details: result in words, relative to unmodified ADH-1
Aqueous solubility = assay type: physicochemical; details: result in words
[2] = humans, following i.v. administration; cited from earlier work

SMILES | stability in whole blood [1] | stability in PBS (Stability testing in PBS) | aqueous solubility (Aqueous solubility) | half-life ([1]; human, whole blood) [h] | circulating half-life [2] [h] | excreted unchanged in the urine [2] [%]
CC(=O)NC1CSCC(O)CSCC(C(N)=O)NC(=O)[C@H](C(C)C)NC(=O)[C@H](C)NC(=O)[C@H](Cc2c[nH]cn2)NC1=O (stereo partly drawn) [ADH100713-T, 3R, 6S, 9S, 12S, 15R 15-Acetylamino-19-hydroxy-12-(1H-imidazol-4-ylmethyl)-6-isopropyl-9-methyl-5,8,11,14-tetraoxo-1,17-dithia-4,7,10,13-tetraaza-cycloicosane-3-carboxylic acid amide] | stable | stable |  |  |  | 
CC(=O)N[C@H]1CSCc2cccc(c2)CSC[C@@H](C(N)=O)NC(=O)[C@H](C(C)C)NC(=O)[C@H](C)NC(=O)[C@H](Cc2c[nH]cn2)NC1=O [ADH100705-T] | much less so | much less so | relatively low |  |  | 
CC(=O)NC1CSCc2ccccc2CSCC(C(N)=O)NC(=O)[C@H](C(C)C)NC(=O)[C@H](C)NC(=O)[C@H](Cc2c[nH]cn2)NC1=O (stereo partly drawn) [ADH100710-T, 8R, 11S, 14S, 17S, 20R 20-Acetylamino-17-(1H-imidazol-4-ylmethyl)-11-isopropyl-14-methyl-10,13,16,19-tetraoxo-5,7,8,10,11,12,13,14,15,16,17,18,19,20,21,23-hexadecahydro-9H-6,22-dithia-9,12,15,18-tetraaza-benzocyclohenicosene-8-carboxylic acid amide] | stable | stable |  |  |  | 
CC(=O)N[C@H]1CSCC(=O)CSC[C@@H](C(N)=O)NC(=O)[C@H](C(C)C)NC(=O)[C@H](C)NC(=O)[C@H](Cc2c[nH]cn2)NC1=O [ADH100706-T] | failed to result in improved stability | failed to result in improved stability |  |  |  | 
CC(=O)N[C@H]1CSC[C@H](O)CSC[C@@H](C(N)=O)NC(=O)[C@H](C(C)C)NC(=O)[C@H](C)NC(=O)[C@H](Cc2c[nH]cn2)NC1=O [ADH-100712-T] | failed to show improved stability | stable |  |  |  | 
CC(=O)N[C@H]1CSSC[C@@H](C(N)=O)NC(=O)[C@H](C(C)C)NC(=O)[C@H](C)NC(=O)[C@H](Cc2c[nH]cn2)NC1=O [ADH-1, N-Ac-CHAVC-NH2] |  |  |  | ~2 | 2.5 | 30
CC(=O)N[C@H]1Cc2ccc(cc2)SC[C@@H](C(N)=O)NC(=O)[C@H](C(C)C)NC(=O)[C@H](C)NC(=O)[C@H](Cc2c[nH]cn2)NC1=O [ADH-100716-T, 4R, 7S, 10S, 13S, 16S 16-Acetylamino-13-(1H-imidazol-4-ylmethyl)-7-isopropyl-10-methyl-6,9,12,15-tetraoxo-2-thia-5,8,11,14-tetraaza-bicyclo[16.2.2]docosa 1(21), 18(22), 19-triene-4-carboxylic acid amide] (Ac-[Phe(4-yl)]HAVC-NH2; thioether 1-5) | improved blood stability |  |  |  |  | 
